Format in all cases: functional
The subject of test [1] is P388. The test can be described thus: Growth inhibition of mouse P388 cells.
For test [2], the system named is SF-295. In words: Growth inhibition of human SF295 cells.
The subject of test [3] is KM-20L2. In words: Growth inhibition of human KM20L2 cells.
In test [4] the test system is NCI-H460. The test can be described thus: Growth inhibition of human NCI-H460 cells.
Test [5] deals with OVCAR-3. In words: Growth inhibition of human OVCAR-3 cells.
Test [6] concerns BXPC-3. The test can be described thus: Growth inhibition of human BXPC3 cells.
Test [7] in a line: Growth inhibition of human prostate cancer cells. The following applies: Cancer cell lines.

Here are results for ten compounds from ChEMBL document CHEMBL1155658, “Isolation and structures of schleicherastatins 1-7 and schleicheols 1 and 2 from the teak forest medicinal tree Schleichera oleosa” (2000).

Values after ≈ are worked out from the molar mass of the structure shown.

Regarding `COC(=O)c1ccc(O)c(O)c1` [METHYL PROTOCATECHUATE], in test [1] (read-out: ED50 (the source's name)), the EC50 was 1.4 µg/mL (≈ 8.33 µM).
As usually defined, the GI50 is the concentration at which growth is held to half of that of the control. Low readings indicate greater sensitivity of the cells, high ones lower sensitivity of the cells. For the compound `CC[C@H](CC[C@@H](C)C1CC[C@H]2[C@@H]3[C@@H](OC)C=C4C[C@@H](O)CC[C@]4(C)[C@H]3CC[C@]12C)C(C)C` (some centres not stated) [SCHLEICHEOL 1], the concentration for 50% growth inhibition (GI50) in test [1] came to 14 µg/mL (≈ 31.5 µM); in test [2], 3.2 µg/mL (≈ 7.2 µM); in test [3] it was 2.5 µg/mL (≈ 5.62 µM); in test [4], 1.8 µg/mL (≈ 4.05 µM); in test [5], 2.1 µg/mL (≈ 4.72 µM); in test [6], 3.3 µg/mL (≈ 7.42 µM). The compound also came in with a 50% growth inhibitory concentration (GI50) in test [7] of 1.8 µg/mL (≈ 4.05 µM).
On to `CC[C@H](CC[C@@H](C)C1CC[C@H]2C3[C@H](OC)C=C4C[C@@H](O)CC[C@]4(C)[C@H]3CC[C@]12C)C(C)C` (some centres not stated) [SCHLEICHEOL 2], for which the 50% growth inhibitory concentration (GI50) in test [1] amounted to 15 µg/mL (≈ 33.7 µM); in test [2] it was 1.9 µg/mL (≈ 4.27 µM); in test [3], 1.2 µg/mL (≈ 2.7 µM); in test [4], 2.2 µg/mL (≈ 4.95 µM); in test [5], 2.5 µg/mL (≈ 5.62 µM); in test [6], 1.4 µg/mL (≈ 3.15 µM). In test [7], this compound came in with a 50% growth inhibitory concentration (GI50) of 1.6 µg/mL (≈ 3.6 µM).
In the case of `CC[C@H](C[C@@H](O)[C@@H](C)[C@H]1CC[C@H]2[C@@H]3[C@@H](OC)C=C4C[C@@H](O)CC[C@]4(C)[C@H]3CC[C@]12C)C(C)C` [SCHLEICHERASTATIN 1], the GI50 in test [1] stood at 0.19 µg/mL (≈ 0.412 µM).
As to `CC[C@H](C[C@@H](O)[C@@H](C)[C@H]1CC[C@H]2[C@@H]3[C@H](OC)C=C4C[C@@H](O)CC[C@]4(C)[C@H]3CC[C@]12C)C(C)C` [SCHLEICHERASTATIN 2], in test [1], the GI50 is 0.72 µg/mL (≈ 1.56 µM).
Take `CO[C@H]1C=C2C[C@@H](O)CC[C@]2(C)[C@H]2CC[C@]3(C)C([C@H](C)[C@H](O)C[C@@H](C)C(C)C)CC[C@H]3[C@H]12` (some centres not stated) [SCHLEICHERASTATIN 3]: in test [1], the concentration for 50% growth inhibition (GI50) worked out at 1.2 µg/mL (≈ 2.69 µM).
Still for that read-out and setting: the value for `CO[C@H]1C=C2C[C@@H](O)CC[C@]2(C)[C@H]2CC[C@]3(C)C([C@H](C)[C@H](O)C[C@H](C)C(C)C)CC[C@H]3[C@H]12` (some centres not stated) [SCHLEICHERASTATIN 4] was 1.2 µg/mL (≈ 2.69 µM); that for `CC[C@H](C[C@@H](O)[C@@H](C)C1CC[C@H]2[C@@H]3C(=O)C=C4C[C@@H](O)CC[C@]4(C)[C@H]3CC[C@]12C)C(C)C` (some centres not stated) [SCHLEICHERASTATIN 5] was 0.34 µg/mL (≈ 0.765 µM); that for `CC(C)[C@H](C)C[C@@H](O)[C@@H](C)C1CC[C@H]2[C@@H]3C(=O)C=C4C[C@@H](O)CC[C@]4(C)[C@H]3CC[C@]12C` (some centres not stated) [SCHLEICHERASTATIN 6] was 0.78 µg/mL (≈ 1.81 µM).
As to `CC(C)[C@@H](C)C[C@@H](O)[C@@H](C)C1CC[C@H]2[C@@H]3C(=O)C=C4C[C@@H](O)CC[C@]4(C)[C@H]3CC[C@]12C` (some centres not stated) [SCHLEICHERASTATIN 7], it took 0.78 µg/mL (≈ 1.81 µM) to inhibit growth in test [1] by half (GI50).
